Measurements taken from PubChem BioAssay (NCI).
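Cultured in 96-well plates, cells were exposed to test compound for 48 hours across five concentrations. TGI marks complete inhibition of growth.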

Tests used:
Assay in all cases: inhibition of tumour cell growth, NCI panel, 48 h
MDA-MB-435 = tested on: MDA-MB-435
SK-MEL-5 melanoma = tested on: SK-MEL-5 melanoma
OVCAR-5 ovarian = tested on: OVCAR-5 ovarian
M14 melanoma = tested on: M14 melanoma
SN12C renal = tested on: SN12C renal
SK-MEL-2 melanoma = tested on: SK-MEL-2 melanoma
HL-60(TB) leukemia = tested on: HL-60(TB) leukemia
EKVX NSCLC = tested on: EKVX NSCLC
IGROV1 ovarian = tested on: IGROV1 ovarian
MCF7 breast = tested on: MCF7 breast
HS 578T breast = tested on: HS 578T breast
TK-10 renal = tested on: TK-10 renal
PC-3 prostate = tested on: PC-3 prostate
HCT-15 colon = tested on: HCT-15 colon
786-0 renal = tested on: 786-0 renal
A498 renal = tested on: A498 renal
SW-620 colon = tested on: SW-620 colon
MDA-MB-231 breast = tested on: MDA-MB-231 breast
KM12 colon = tested on: KM12 colon
A549 NSCLC = tested on: A549 NSCLC
ACHN renal = tested on: ACHN renal
HOP-92 NSCLC = tested on: HOP-92 NSCLC
SK-OV-3 ovarian = tested on: SK-OV-3 ovarian
MDA-N = tested on: MDA-N
UACC-257 melanoma = tested on: UACC-257 melanoma
LOX IMVI melanoma = tested on: LOX IMVI melanoma
SNB-75 CNS = tested on: SNB-75 CNS
RXF 393 renal = tested on: RXF 393 renal
CAKI-1 renal = tested on: CAKI-1 renal
DU-145 prostate = tested on: DU-145 prostate
U251 CNS = tested on: U251 CNS
OVCAR-8 ovarian = tested on: OVCAR-8 ovarian
HCT-116 colon = tested on: HCT-116 colon
MOLT-4 leukemia = tested on: MOLT-4 leukemia
UACC-62 melanoma = tested on: UACC-62 melanoma
HOP-62 NSCLC = tested on: HOP-62 NSCLC
SF-268 CNS = tested on: SF-268 CNS
SNB-19 CNS = tested on: SNB-19 CNS
SK-MEL-28 melanoma = tested on: SK-MEL-28 melanoma
K-562 leukemia = tested on: K-562 leukemia
HT29 colon = tested on: HT29 colon
SR leukemia = tested on: SR leukemia
CCRF-CEM leukemia = tested on: CCRF-CEM leukemia
RPMI-8226 leukemia = tested on: RPMI-8226 leukemia
MALME-3M melanoma = tested on: MALME-3M melanoma
UO-31 renal = tested on: UO-31 renal
OVCAR-3 ovarian = tested on: OVCAR-3 ovarian
SF-539 CNS = tested on: SF-539 CNS
BT-549 breast = tested on: BT-549 breast
COLO 205 colon = tested on: COLO 205 colon
NCI-H226 lung = tested on: NCI-H226 lung
NCI-H460 lung = tested on: NCI-H460 lung
NCI-H23 lung = tested on: NCI-H23 lung
SF-295 CNS = tested on: SF-295 CNS
OVCAR-4 ovarian = tested on: OVCAR-4 ovarian
NCI/ADR-RES ovarian = tested on: NCI/ADR-RES ovarian
NCI-H522 lung = tested on: NCI-H522 lung
HCC-2998 colon = tested on: HCC-2998 colon
T-47D breast = tested on: T-47D breast

Measured: TGI

CC1CC/C(=C\c2ccc(F)cc2)C2=C1C(c1ccc(F)cc1)n1c(s/c(=C/c3cccc(Br)c3)c1=O)=N2 (stereo unspecified)
not listed: MALME-3M melanoma | UO-31 renal | OVCAR-3 ovarian | SF-539 CNS | BT-549 breast | COLO 205 colon | NCI-H226 lung | NCI-H460 lung | NCI-H23 lung | SF-295 CNS | OVCAR-4 ovarian | NCI/ADR-RES ovarian | NCI-H522 lung | HCC-2998 colon | T-47D breast
> 100 µM: all other assays above

CC1CCC2C(C)(C)CC3(C)CCC1C23O (stereo unspecified)
32 µM: BT-549 breast
27.9 µM: HCT-116 colon
29.4 µM: M14 melanoma | IGROV1 ovarian
25.8 µM: SF-295 CNS
49.6 µM: OVCAR-4 ovarian
37 µM: A549 NSCLC
5.57 µM: HL-60(TB) leukemia
29.8 µM: SK-MEL-28 melanoma
25.3 µM: MDA-N
33.2 µM: COLO 205 colon
30.2 µM: SW-620 colon
30 µM: UO-31 renal
34.4 µM: OVCAR-8 ovarian
40.9 µM: K-562 leukemia
30.5 µM: MDA-MB-435
29.9 µM: OVCAR-3 ovarian | NCI-H226 lung | HT29 colon
21.7 µM: CCRF-CEM leukemia
27.2 µM: CAKI-1 renal
29.7 µM: MDA-MB-231 breast | ACHN renal | UACC-257 melanoma
30.6 µM: HCT-15 colon | HOP-62 NSCLC
36.7 µM: A498 renal
29.5 µM: U251 CNS
48.4 µM: SNB-75 CNS
26.4 µM: HOP-92 NSCLC
28.9 µM: LOX IMVI melanoma
29.6 µM: NCI-H23 lung
30.8 µM: RXF 393 renal
25.7 µM: PC-3 prostate
28.3 µM: EKVX NSCLC
> 100 µM: SNB-19 CNS
27.3 µM: SK-MEL-2 melanoma
32.6 µM: SN12C renal
29.3 µM: MCF7 breast
28.2 µM: UACC-62 melanoma
34.9 µM: OVCAR-5 ovarian
30.7 µM: NCI-H460 lung
31.6 µM: TK-10 renal | SF-539 CNS
30.3 µM: HS 578T breast
29.1 µM: KM12 colon | SR leukemia
29 µM: 786-0 renal
27.7 µM: SK-MEL-5 melanoma
26.2 µM: MALME-3M melanoma
28 µM: MOLT-4 leukemia | NCI/ADR-RES ovarian
89.2 µM: SK-OV-3 ovarian

CCOC(=O)C1OC(=O)CC1C1(C(=O)OCC)C=CC(=O)O1 (stereo unspecified)
58.1 µM: NCI-H460 lung
93.3 µM: LOX IMVI melanoma
not listed: MDA-MB-435 | HS 578T breast | A498 renal | MDA-MB-231 breast | T-47D breast
> 100 µM: all other assays above

CC(C)(C)OC(=O)NCCC1SC2C=CC1C2 (stereo unspecified)
not listed: SR leukemia
> 100 µM: all other assays above

O=c1cc(-c2ccccc2)nc(-n2[nH]c3c(c2=O)CCCC3)[nH]1
14.2 µM: SNB-75 CNS
29.4 µM: SK-MEL-2 melanoma
89.9 µM: MDA-MB-435
44.6 µM: SF-539 CNS
18.6 µM: HCT-116 colon
61.9 µM: OVCAR-4 ovarian
3.97 µM: DU-145 prostate
69.6 µM: NCI-H522 lung
80.1 µM: ACHN renal
33.8 µM: HT29 colon
35.8 µM: CCRF-CEM leukemia
65.7 µM: RPMI-8226 leukemia
15.6 µM: UACC-62 melanoma
26.8 µM: M14 melanoma
46.3 µM: 786-0 renal
40.8 µM: COLO 205 colon
28.9 µM: SK-MEL-28 melanoma
25.5 µM: RXF 393 renal
not listed: LOX IMVI melanoma | OVCAR-8 ovarian | HOP-62 NSCLC | OVCAR-3 ovarian | NCI/ADR-RES ovarian | HCC-2998 colon | T-47D breast
> 100 µM: all other assays above
